Assay results as given in ChEMBL document CHEMBL5724796, “Tm Shift (DSF) assay results for EUbOPEN Chemogenomics Library” (2024).
Non-standard residues stand in square brackets, D forms with d. Residues, ends and D or L forms follow the SMILES beside them. *: point of attachment. Benzoyl(4-OPh) = O=C(c1ccc(Oc2ccccc2)cc1)*; Lys(Et2) = CCN(CC)CCCC[C@H](N)C(=O)O; d(aIle) = CC[C@H](C)[C@@H](N)C(=O)O; Gly(cPent) = N[C@H](C(=O)O)C1CCCC1; Nle = CCCC[C@H](N)C(=O)O; Cbz = O=C(OCc1ccccc1)*; NH(propargyl) = C#CCN*; Boc = CC(C)(C)OC(=O)*; CH2F = FC*

Columns and labels:
[1] = target: T1, Peregrin (Homo sapiens) (UniProt P55201); settings: Compound concentration 20.0 uM
T1 sequence (whole entry): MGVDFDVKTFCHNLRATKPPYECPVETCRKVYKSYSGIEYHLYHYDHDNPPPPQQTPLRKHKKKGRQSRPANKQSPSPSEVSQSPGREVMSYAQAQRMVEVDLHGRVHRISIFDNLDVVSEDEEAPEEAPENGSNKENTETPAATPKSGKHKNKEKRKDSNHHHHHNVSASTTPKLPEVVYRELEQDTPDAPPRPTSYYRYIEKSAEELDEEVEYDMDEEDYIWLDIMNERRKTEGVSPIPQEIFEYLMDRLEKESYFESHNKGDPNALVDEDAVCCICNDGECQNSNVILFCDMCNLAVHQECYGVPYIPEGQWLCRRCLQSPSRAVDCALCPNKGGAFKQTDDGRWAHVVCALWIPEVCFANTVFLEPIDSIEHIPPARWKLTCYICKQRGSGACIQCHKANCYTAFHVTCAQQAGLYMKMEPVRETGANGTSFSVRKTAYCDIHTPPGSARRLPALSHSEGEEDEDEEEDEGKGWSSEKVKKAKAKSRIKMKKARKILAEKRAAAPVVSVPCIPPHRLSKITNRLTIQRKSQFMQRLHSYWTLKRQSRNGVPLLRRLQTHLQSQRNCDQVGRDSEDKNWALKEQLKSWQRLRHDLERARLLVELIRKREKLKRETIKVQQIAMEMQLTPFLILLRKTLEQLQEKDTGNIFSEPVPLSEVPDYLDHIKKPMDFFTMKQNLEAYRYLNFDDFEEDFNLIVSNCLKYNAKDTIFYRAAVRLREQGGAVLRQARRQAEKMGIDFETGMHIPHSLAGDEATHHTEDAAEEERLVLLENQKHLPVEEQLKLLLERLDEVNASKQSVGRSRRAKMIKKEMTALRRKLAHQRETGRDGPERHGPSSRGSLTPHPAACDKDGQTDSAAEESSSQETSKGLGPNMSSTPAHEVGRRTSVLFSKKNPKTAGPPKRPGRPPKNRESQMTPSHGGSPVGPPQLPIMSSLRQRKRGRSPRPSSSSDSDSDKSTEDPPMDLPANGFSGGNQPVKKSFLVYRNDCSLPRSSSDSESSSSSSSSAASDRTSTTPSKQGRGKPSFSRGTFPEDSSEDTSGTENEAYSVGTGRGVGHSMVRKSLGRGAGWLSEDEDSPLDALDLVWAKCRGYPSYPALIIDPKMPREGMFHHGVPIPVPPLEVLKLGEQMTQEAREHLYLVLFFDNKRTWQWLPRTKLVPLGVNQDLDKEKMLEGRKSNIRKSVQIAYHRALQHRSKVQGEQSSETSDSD

[2] = target: Fibroblast growth factor receptor 2 (Homo sapiens) (UniProt P21802); settings: Compound concentration 20.0 uM
Fibroblast growth factor receptor 2 (Homo sapiens), sequence (P21802 22-821 limits assumed): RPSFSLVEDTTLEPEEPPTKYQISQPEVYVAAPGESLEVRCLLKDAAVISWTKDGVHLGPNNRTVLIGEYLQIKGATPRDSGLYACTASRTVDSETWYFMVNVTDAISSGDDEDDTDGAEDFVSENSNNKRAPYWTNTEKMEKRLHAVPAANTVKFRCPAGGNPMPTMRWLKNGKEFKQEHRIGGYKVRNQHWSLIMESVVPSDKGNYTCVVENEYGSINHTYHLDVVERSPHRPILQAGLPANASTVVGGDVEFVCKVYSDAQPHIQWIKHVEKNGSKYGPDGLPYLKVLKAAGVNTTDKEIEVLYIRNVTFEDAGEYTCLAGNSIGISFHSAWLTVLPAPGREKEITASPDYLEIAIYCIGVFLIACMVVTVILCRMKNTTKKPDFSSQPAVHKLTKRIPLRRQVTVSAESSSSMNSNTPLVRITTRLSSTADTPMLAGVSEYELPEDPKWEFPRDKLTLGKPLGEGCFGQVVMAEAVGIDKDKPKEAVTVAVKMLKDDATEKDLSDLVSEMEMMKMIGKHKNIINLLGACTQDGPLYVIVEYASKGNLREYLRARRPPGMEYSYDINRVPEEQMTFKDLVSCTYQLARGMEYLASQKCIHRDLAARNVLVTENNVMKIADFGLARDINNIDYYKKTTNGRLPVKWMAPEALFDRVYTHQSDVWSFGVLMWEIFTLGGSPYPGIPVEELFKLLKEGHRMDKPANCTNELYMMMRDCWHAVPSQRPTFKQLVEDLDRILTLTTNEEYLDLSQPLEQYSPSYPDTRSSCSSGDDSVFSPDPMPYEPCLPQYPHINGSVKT
Description: Thermal Shift Assay. Domain: start/stop: T457-E768

Row | SMILES | ΔTm [1] [°C] | ΔTm [2] [°C]
1 | CC(=O)Nc1ccc(OC[C@](C)(O)C(=O)Nc2ccc([N+](=O)[O-])c(C(F)(F)F)c2)cc1 | 0.97 | 2.59
2 | O=C(O)CCNc1cc(N2CCc3ccccc3CC2)nc(-c2ccccn2)n1 | 0.6 | 0.4
3 | O=C1Cc2cc(C(=O)N[C@@H]3C[C@H]4CC[C@@H](C3)N4S(=O)(=O)CC3CCN(CCCC(F)(F)F)CC3)c(Cl)cc2N1 | -0.66 | -0.16
4 | Nc1nc(NC2CC2)cc(-c2cccc(Cl)c2Cl)n1 | 0.95 | 0.04
5 | CCC(=O)N[C@H]1CC[C@@H](C(=O)N(C)c2ccc(-c3nc4ccccc4o3)cc2)C1 | 0.27 | 0.23
6 | O=C(NCC(=O)N1CCCCC1)Nc1ccc2nnsc2c1 | -1.05 | 0.59
7 | Cc1cc(C(=O)CN2CCCCC2)c(C)n1-c1ccc(Cl)cc1 | -1.17 | -0.09
8 | O=C(O)CCNC(=S)NCCCC[C@H](NS(=O)(=O)c1cccc(F)c1)C(=O)N[C@@H](Cc1c[nH]c2ccccc12)C(=O)NC1CCC1 | 1.86 | -0.15
9 | COCCOc1cc(CC2CCN(CCc3ccc4c(c3)C(=O)CCO4)CC2)ccc1Br | 1.8 | -0.65
10 | Cc1ccc(C(=O)Nc2ccc(S(=O)(=O)O)c3cc(S(=O)(=O)O)cc(S(=O)(=O)O)c23)cc1NC(=O)c1cccc(NC(=O)Nc2cccc(C(=O)Nc3cc(C(=O)Nc4ccc(S(=O)(=O)O)c5cc(S(=O)(=O)O)cc(S(=O)(=O)O)c45)ccc3C)c2)c1 | -1.58 | -1.68
11 | CC(=O)O[C@]1(C(C)=O)CC[C@H]2[C@@H]3C=C(Cl)C4=CC(=O)[C@@H]5C[C@@H]5[C@]4(C)[C@H]3CC[C@@]21C | -1.28 | 0.57
12 | CCCc1nc(C)c2c(=O)nc(-c3cc(S(=O)(=O)N4CCN(CC)CC4)ccc3OCC)[nH]n12 | 1.02 | 0.41
13 | O=C(c1cc(Cc2n[nH]c(=O)c3ccccc23)ccc1F)N1CC(CNC2CC2)C1 | -0.32 | -0.3
14 | CCc1c(C)nc(-c2ccc(Cl)s2)nc1Nc1ccc(CC(=O)O)cc1 | 1.24 | -0.19
15 | CCCOC(=O)N1CCN(C(=O)c2ccc3c(Cl)cc(-c4ccc(C5(N)CC5)cc4)nc3c2)C[C@H]1C | -1.27 | -0.58
16 | CCN1C(C)(C)CC(Oc2ccc(C(=O)Nc3ccc(NC(=O)Nc4cc(C(C)(C)C)on4)cc3)nc2)CC1(C)C | -1.03 | -2
17 | O=C(N(CCc1ccccc1)C1CCCCC1)n1ncc(-c2ccc(OC(F)(F)F)cc2)n1 | 1.62 | -0.24
18 | Cc1ncsc1-c1ccc(CNC(=O)[C@@H]2C[C@@H](O)CN2C(=O)[C@@H](NC(=O)COCCOCCOc2ccc(-c3ccc4ncnc(Nc5ccc(OCc6cccc(F)c6)c(Cl)c5)c4c3)cc2)C(C)(C)C)cc1 | 0 | -3.99
19 | CC(=O)Nc1ccc(C(=O)Nc2ccc(F)cc2N)cc1 | 1.03 | 0.76

Row | SMILES | ΔTm [1] [°C] | ΔTm [2] [°C]
20 | CC(C)Nc1cc(-c2c[nH]c(C(=O)N[C@H](CO)c3cccc(Cl)c3)c2)c(Cl)cn1 | 0.61 | 0.33
21 | Nc1ncnc2c1ncn2[C@@H]1O[C@H](C(=O)N2CCN(CC(=O)Nc3cccc4c3CNC4=O)CC2)[C@@H](O)[C@H]1O | -1.21 | 0.74
22 | NC(=O)C1CN(CCCCC(c2ccc(F)cc2)c2ccc(F)cc2)CCN1CC(=O)Nc1c(Cl)cc(N)cc1Cl (configuration not stated) | -3.73 | -9.38
23 | C#CCNC(=O)[C@H](CO)NC(=O)[C@H](CCCCN(CC)CC)NC(=O)[C@H](NC(=O)[C@@H](NC(=O)c1ccc(Oc2ccccc2)cc1)C1CCCC1)[C@@H](C)CC ({Benzoyl(4-OPh)}-[Gly(cPent)][d(aIle)][Lys(Et2)]S-{NH(propargyl)}) | -0.64 | -1.33
24 | OC[C@H]1O[C@@H](c2ccc(Cl)c(Cc3ccc(O[C@H]4CCOC4)cc3)c2)[C@H](O)[C@@H](O)[C@@H]1O | 1.01 | -0.41
25 | O=C(NCC1(c2nc(-c3ccccc3)cs2)CCOCC1)c1cccc(-c2noc(C(F)(F)F)n2)c1 | -4.49 | -0.34
26 | Cc1ccc(C)c(-n2sc3cc(F)ccc3c2=O)c1 | -11.8 | -0.26
27 | CC(C)[C@H](NC(=O)[C@H](CCC(=O)O)NC(=O)[C@H](C)NC(=O)OC(C)(C)C)C(=O)N[C@H](C=O)CC(=O)O (Boc-AEVD-aldehyde) | -1.27 | 0.45
28 | COc1cc(-c2cn(C)c(=O)c3cnccc23)cc(OC)c1CN(C)CC(=O)NCCOCCOCCNc1cccc2c1C(=O)N(C1CCC(=O)NC1=O)C2=O (configuration not stated) | -0.56 | 0.52
29 | CC(C)(O)c1ccc(-c2nc3c(F)cc(F)cc3c(=O)[nH]2)cc1 | -0.9 | -3.32
30 | Cc1cc(-c2ccc3nc(C4CCOCC4)n(CCOC(F)(F)F)c3c2)cn(C)c1=O | 4.67 | 0.33
31 | O=C(O)[C@@H]1CCCN(C(=O)n2cnc(-c3ccc(-c4cnc(N5CCOCC5)nc4)cc3)n2)[C@H]1c1ccccc1 | -0.92 | 0.15
32 | CC(C)(CNC(=O)c1cccc(-c2noc(C(F)(F)F)n2)c1)c1coc(-c2ccccc2)n1 | -1.34 | 0.16
33 | CCCC1O[C@@H]2C[C@H]3[C@@H]4CCC5=CC(=O)C=C[C@]5(C)[C@H]4[C@@H](O)C[C@]3(C)[C@]2(C(=O)CO)O1 (some centres not stated) | -1.04 | -0.77
34 | Cc1cc2cc(NS(=O)(=O)c3ccc(C#N)cc3)ccc2n(C)c1=O | 8.89 | 0.4
35 | Cc1cccc(Nc2ccncc2S(=O)(=O)NC(=O)NC(C)C)c1 | 0.33 | -0.51
36 | CC(C)(C)C1CCN(C(=O)n2ncc(C(O)(c3ccccc3)c3ccccc3)n2)CC1 | -4.31 | -3.22
37 | COC(=O)CC[C@H](NC(=O)[C@H](Cc1c[nH]c2ccccc12)NC(=O)OCc1ccccc1)C(=O)N[C@@H](Cc1cnc[nH]1)C(=O)N[C@@H](CC(=O)OC)C(=O)CF (Cbz-WE(OMe)HD(OMe)-CH2F) | -1.05 | 0.1
38 | Nc1ncnc2c1nc(NCc1ccc(-c3ccccc3)cc1)n2[C@@H]1O[C@H](CO)[C@@H](O)[C@H]1O | 0.29 | 0.12

Row | SMILES | ΔTm [1] [°C] | ΔTm [2] [°C]
39 | O=C(N1CCCCC1c1ccccc1)n1cc(-c2ccc(-c3cccc(CO)c3)cc2)nn1 (configuration not stated) | -1.91 | -4.93
40 | O=C1/C(=N/Nc2ccc(S(=O)(=O)O)cc2)C(c2ccc([N+](=O)[O-])cc2)=NN1c1ccccc1 | 0.37 | 0.4
41 | CC(C)N(C(=O)c1cc(F)ccc1Oc1cncnc1N1CC2(CCN(C[C@H]3CC[C@H](NS(C)(=O)=O)CC3)CC2)C1)C(C)C | 0.63 | -0.47
42 | O=C(CN1CCN(c2ccc(F)cn2)CC1)Nc1nc2c(s1)CCCC2 | 2.63 | -0.21
43 | C[C@H](N)C(=O)N1C[C@H](CCCB(O)O)[C@](N)(C(=O)O)C1 | -0.07 | 0.25
44 | Cc1cc(C(=O)CN2CCC(O)CC2)c(C)n1-c1ccc(C#N)cc1 | 1.04 | -0.17
45 | CC(=O)N[C@@H](CC(=O)O)C(=O)N[C@@H](CC(N)=O)C(=O)N[C@@H](CC(C)C)C(=O)N[C@H](C=O)CC(=O)O | 1.79 | 0.44
46 | COc1c(CN)cc(CN)cc1OCCCN1Cc2ccccc2C1 | 0.41 | 0.36
47 | CCCC[C@@H](C=O)NC(=O)[C@H](CC(C)C)NC(=O)[C@H](CC(C)C)NC(C)=O (Ac-Leu-Leu-[Nle]-aldehyde) | -1.4 | 0.84
48 | CC(=O)Nc1ccc(-c2cc(-c3ccccc3)nc3cc(C(=O)NCCCn4ccnc4)nn23)cc1 | -0.4 | 0.21
49 | CS(=O)(=O)c1ccc(Oc2cc(F)cc(C#N)c2)c2c1[C@H](O)[C@H](F)[C@@H]2F | 2.16 | 0.61
50 | CC(=Cc1cc(C)ccc1C=C(C)C(=O)NC(=N)N)C(=O)N=C(N)N | -1.11 | -0.04
51 | O=C(NO)C(c1ccc(-c2ncc(C(F)(F)F)cn2)cc1)c1ccccc1F (configuration not stated) | -0.82 | -0.81
52 | Cc1cccc(N/N=C(\C(=O)c2cccs2)C(=O)C(F)(F)F)c1 | 1.4 | -0.22
53 | O=C(c1ccc2[nH]ccc2c1)N1CCN(S(=O)(=O)c2ccc3[nH]c(=O)oc3c2)CC1 | -0.16 | 1.77
54 | CNC[C@@H](O)COc1ccc(Cl)c(-c2nc(-c3c(C)noc3C)c(C)c(N3CC4(CCN(C(=O)OC)CC4)C3)n2)c1 | -1.65 | 0.49
55 | O=[N+]([O-])c1cc(O)c(O)c([N+](=O)[O-])c1 | 2.24 | 0.52
56 | CCCn1/c(=N/C(=O)c2cccc(C(N)=O)c2)[nH]c2ccccc21 | -1.26 | 0.22
